Test results: US5783587A, “Benzoyl Piperidines/pyrrolidines for enhancing synaptic response” (The Regents of the University of California, priority 1997, dated 1998)

Test system: not given
Assay: not given
Conditions: following peripheral administration in humans; cited from earlier work

Compound | fraction of drug converted to anisoyl-GABA
COc1ccc(C(=O)N2CCCC2=O)cc1 [aniracetam, N-anisoyl-2-pyrrolidinone] | about 80%

Test system: AMPA receptors
Assay: In vitro physiological testing: field EPSPs in slices of rat hippocampus (CA1)
Type: cell-based, rat (Sprague-Dawley)
Conditions: rat hippocampal slices, 15-minute perfusion, paired-pulse, second response
Protocol: The physiological effects of the compounds of this invention were determined by in vitro tests using slices of rat hippocampus according to the following procedure. Excitatory responses (field EPSPs) were measured in hippocampal slices, which are maintained in a recording chamber continuously perfused with artificial cerebrospinal fluid (ACSF). During a 15-minute interval, the perfusion medium was switched to one containing various concentrations of the test compounds. Responses collected immediately before and at the end of drug perfusion were superimposed in order to calculate both the percent increase in EPSP amplitude and the percent increase in the width of the response at one-half the peak height (half-width).
To conduct these tests, the hippocampus was removed from anesthetized, 2-month old Sprague-Dawley rats, and in vitro slices (400 micrometers thick) were prepared and maintained in an interface chamber at 35° C. using conventional techniques. This is the procedure used by Dunwiddie and Lynch, as reported in J. Physiol. 276:353-367 (1978). The chamber was constantly perfused at 0.5 mL/min with ACSF containing (in mM): NaCl, 124; KCl, 3; KH2 PO4, 1.25; MgSO4, 2.5; CaCl2, 3.4; NaHCO3, 26; glucose, 10; and L-ascorbate, 2. A bipolar nichrome stimulating electrode was positioned in the dendritic layer (stratum radiatum) of the hippocampal subfield CA1 close to the border of subfield CA3.
Current pulses (0.1 msec) through the stimulating electrode activated a population of the Schaffer-commissural (SC) fibers, which arise from neurons in the subdivision CA3 and terminate in synapses on the dendrites of CA1 neurons. Activation of these synapses causes them to release the transmitter glutamate. Glutamate binds to the post-synaptic AMPA receptors, which then transiently open an associated ion channel and permit a sodium current to enter the postsynaptic cell. This current results in a voltage in the extracellular space (the field excitatory post-synaptic potential or field "EPSP"), which is recorded by a high impedance recording electrode positioned in the middle of the stratum radiatum of CA1.
With the intensity of the stimulation current adjusted to produce half-maximal EPSPs (typically about 1.5-2.0 mV), paired stimulation pulses were given every 40 seconds with an interpulse interval of 200 msec. The field EPSPs of the second response were digitized and analyzed to determine amplitude and half-width. If the responses are stable for 15-30 minutes (baseline), test compounds were added to the perfusion lines for a period of about 15 minutes. The perfusion was then changed back to regular ACSF.
Paired-pulse stimulation is used in this type of test because stimulation of the SC fibers in part activates interneurons that generate an inhibitory postsynaptic potential (IPSP) in the pyramidal cells of CA1. This feed-forward IPSP typically sets in after the EPSP reaches its peak. The feed-forward IPSP accelerates the repolarization and shortens the decay phase of the EPSP, and could thereby partially mask the effects of the test compounds. One of the relevant features of the feed-forward IPSP is that it cannot be reactivated for several hundred milliseconds following a stimulation pulse. This phenomenon can be employed to advantage to eliminate IPSP by delivering paired pulses separated by 200 milliseconds and using the second ("primed") response for data analysis.
The field EPSP recorded in field CA1 after stimulation of CA3 axons is known to be mediated by AMPA receptors: the receptors are present in the synapses, as reported by Kessler, et al., Brain Res. 560:337-341 (1991), and drugs that selectively block the receptor selectively block the field EPSP. […] See, for example, Staubli, et al., Psychobiology 18:377-381 (1990); Xiao, et al., Hippocampus 1:373-380 (1991); and Staubli, et al., Hippocampus 2:49-58 (1992). […]

Compound | estimated concentration required to increase the amplitude of the EPSP to 25% above baseline (+25% Amplitude) [mM] | estimated concentration required to increase the half-width of the EPSP by 50% (+50% Half-Width) [mM]
COCc1ccc2c(c1)OC1CCCN1C2=O (racemic) [Compound VI, (R, S)-6-Methoxymethyl-2,3-dihydro-1H-pyrrolo[2,1-b][1,3]benzoxazine-9(3aH)-one] | 0.1 | 0.2
COCc1ccc2c(c1)C(=O)N1CCCC1O2 (racemic) [Compound VII, (R,S)-7-Methoxymethyl-2,3-dihydro-1H-pyrrolo[2,1-b][1,3]benzoxazine-9(3aH)-one] | 0.3 | 0.2
COCc1ccc(C(=O)N2CCCCC2)cc1 [Compound I, 1-(4'-Methoxymethylbenzoyl)piperidine] | 0.3 | 0.3
COCc1cccc(C(=O)N2CCCCC2)c1 [Compound II, 1-(3'-Methoxymethylbenzoyl)piperidine] | 0.3 | > 1
CCOCc1ccc(C(=O)N2CCCCC2)cc1 [Compound III, 1-(4'-Ethoxymethylbenzoyl)piperidine] | > 1 | 0.2
O=C(c1ccc(CO)cc1)N1CCCCC1 [Compound IV, 1-(4'-Hydroxymethylbenzoyl)piperidine] | 1 | > 1
O=C(c1ccc(COc2ccc3c(c2)OCO3)cc1)N1CCCCC1 [Compound V, 1-(4'-(3",4"-Methylenedioxyphenoxy)-methylbenzoyl)piperidine] | 0.05 | > 0.1
